Results published in PMC3236199, “Development of Derivatives of 3, 3′-Diindolylmethane as Potent Leishmania donovani Bi-Subunit Topoisomerase IB Poisons” (PLoS ONE, 2011).
pIC50, pKd: −log10 of the molar value.

Columns and labels:
[1] = tested on: wild type L. donovani AG83 promastigotes; assay: DNA fragmentation assay (cell death detection ELISA), wild type; format: cell-based, Leishmania donovani; conditions: 20 µM
Experimental: Leishmanial cells were cultured in 24-well plates and treated with 20 µM of DIM, DPDIM, DMDIM and DMODIM for different times. Samples were collected at requisite time points and subjected to measurement of DNA fragmentations. Cytoplasmic histone-associated DNA fragments (mononucleosome and oligonucleosomes) formed during apoptosis were detected using a cell death detection ELISA kit (Roche Biochemicals) by spectrophotometric measurement of microtiter plates in a Thermo MULTISKAN EX plate reader at 405 nm. The relative percentages (with respect to samples treated with micrococcal nuclease and normalized to percentage values) were plotted as units of time or drug concentrations as described previously.
The internucleosomal DNA digestion by an endogenous nuclease (genomic DNA fragmentation) is considered as a hallmark of apoptotic cell death. […] To investigate whether these derivatives also do the same, we performed the DNA fragmentation assay with wild type L. donovani AG83 promastigotes and DIM resistant parasites (Fig. 4) by ELISA as described in Materials and Methods. […] DNA fragmentation increased to 85%, 89%, 81% and 71% at 8 h of treatment in wild type parasites. The DIM resistant parasites (LdDR50) have much less effect in DNA fragmentation (13% at 6 h and 17% at 8 h) when treated with 20 µM DIM. On the other hand the extents of DNA fragmentations were 63%, 51% and 40% at 6 h treatment with DPDIM, DMDIM and DMODIM respectively. The extent of fragmentation increased to 82%, 74% and 65% after treatment for 8 h with the drugs as mentioned above.
Figure 4 DIM derivatives-induced fragmentation of genomic DNA in wild type and DIM resistant parasites. Relative percentage of DNA fragmentation measured by cell death detection ELISA kit in L. donovani promastigotes treated with DIM, DPDIM, DMDIM and DMODIM. The experiments were performed three times and representative data from one of these experiments as means ± SD.

[2] = molecular target: CT DNA; set-up: method as in PMID 17922678; conditions: interaction with DNA; read-out: dissociation constant (KD); cited from earlier work
[3] = tested on: F270L mutant topoisomerase I; conditions: cited from earlier work
[4] = tested on: L. donovani topoisomerase II; assay: Immunoband depletion assay, topoisomerase II; format: cell-based, Leishmania donovani; conditions: 50 µM, antibody against ATPase domain of topoisomerase II
Experimental: Leishmania cells (3×10^7) were cultured in absence and presence of the drugs. Nuclear fractions were isolated as described. Briefly, cells were suspended in hypotonic buffer (10 mM Tris-HCl, pH 7.5, 1 mM EDTA, 0.1 mM EGTA, 1 mM PMSF, 1 mM benzamidine hydrochloride and 5 mM DTT) and homogenized. The homogenate was centrifuged for 10 min at 10,000 g. The pellets were washed and used as the source of nuclear fraction. Thereafter, the nuclear fractions were lysed with 1% SDS and subjected to SDS-PAGE (10%). The proteins were electrophoretically transferred to nitrocellulose membranes and immumobloting of immobilized proteins were carried out using a rabbit polyclonal antibody raised against LdTOP1S for topoisomerase I and ATPase domain of L. donovani topoisomerase II [8].
To rule out the topoisomerase II mediated cleavable complex stabilization by the derivatives, we have carried out immunoband depletion assay with antibody raised against ATPase domain (43 kDa) of L. donovani topoisomerase II.
Supplementary file pone.0028493.s001.tif: Figure S1 Stabilization of topoisomerase-II mediated cleavable complex was determined by immunoband depletion assay. Immunoband depletion of L. donovani topoisomerase II, using an antibody raised against LdTOP2 (ATPase domain, 43 kDa). […]

[5] = tested on: DIM resistant DR50 promastigotes; assay: Change in IC50 on prolonged exposure of DIM resistant promastigotes; format: cell-based; conditions: Leishmania donovani
Experimental: L. donovani strain AG83 and DIM resistant parasite DR50 promastigotes were grown at 22°C in M199 liquid media supplemented with 10% FBS as described. Axenic amastigotes were cultured in modified M199 medium (pH 5.3) supplemented with 10 mM sodium succinate, 40 mM HEPES and 25% FCS and maintained at 37°C with 5% CO2.The effect of drugs on the viability of Leishmania parasites was determined by direct microscopic counting using light microscope (40× objective) in a haemocytometer. The cells at the exponential phase were collected and transferred into 24-well plate (3.5×10^6 cells per well). The cells were then incubated for 12 h in the presence of various concentrations of DIM, DPDIM, DMDIM and DMODIM (1, 5, 10, 20 and 50 µM). For other experiments, 10^4 cells were taken and grown in presence of the respective derivatives for a period of 30 days. For each 5 day interval, a small amount of aliquots were taken out. After incubation the cells were centrifuged and cell pellet was washed with PBS (1×) twice and finally suspended in 1 ml PBS (1×). […] One drop of the mixture was transferred to haemocytometer and the clear (live) and blue (dead) cells were counted. The total number of viable cells in aliquot was calculated by multiplying the total number of viable cells by 2 (the dilution factor for trypan blue). […] Percentages of viable cells were calculated using the formula: [drawing 1]
Figure 2 Effect of DIM-derivatives on Leishmania parasites. Growth of L. donovani AG83 promastigotes (A) and DIM resistant promastigotes (B) were monitored in presence of increasing concentrations (1, 5, 10, 20 and 50 µM) of DIM, DPDIM, DMDIM and DMODIM for 12 h. […] Change in IC50 values after a prolong exposure to DIM derivatives (C) has been assessed as described in Materials and Methods. After every 5 day a small aliquot was taken out and number of viable promastigotes was counted for each concentration. IC50 values have been determined from them using Graph Pad Prsim ver 5.0 software and a graphical plot was generated over time. […]

SMILES	fragmentation of DNA ([1]; 6 h)	fragmentation of DNA ([1]; 8 h)	pKd [2]	sensitivity of F270L topoisomerase I mutant [3]	stabilization of topoisomerase II mediated cleavage complex [4]	pIC50 ([5]; 24 h)	pIC50 [5]
Cc1[nH]c2ccccc2c1Cc1c(C)[nH]c2ccccc12 [DMDIM, 2,2′-dimethyl 3,3′-diindolyl methane]	60%	81%					
c1ccc2c(Cc3c[nH]c4ccccc34)c[nH]c2c1 [DIM, 3, 3′-diindolyl methane, reference compound]	73%	85%	4.66	insensitive	do not stabilize cleavage complex formation		
COc1ccc2[nH]cc(Cc3c[nH]c4ccc(OC)cc34)c2c1 [DMODIM, 5,5′-dimethoxy 3,3′-diindolyl methane]	49%	71%				5.14	
c1ccc(-c2[nH]c3ccccc3c2Cc2c(-c3ccccc3)[nH]c3ccccc23)cc1 [DPDIM, 2,2′-diphenyl 3,3′-diindolyl methane]	79%	89%				5.64	7.30
